Data set [1] concerns A549 cells. It is filed as cell-based. To be noted: for toxicity of the compound by itself in A549 cultures: 50 μM; for Activity as enhancer of doxorubicin-induced cell death, relative activity symbol: A549 cell cultures. On the procedure: FIG. 2. […] Cells were seeded in 96-well plates and treated with the indicated compound combinations. The cellular viability (cell number) was measured with alamarBlue® and arbitrary units of fluorescence after 36 h of treatment (vertical axis).
FIG. 7. […] A549 cells were seeded on 96-well culture plates and after 4 h were treated with the indicated concentrations of doxorubicin in absence or presence of T12 (50 μM) and/or CFTR-inhibitor-172 (25 μM). Cells were cultured for additional 36 h and cell viability assessed as in FIG. 2.
A549 human lung adenocarcinoma cancer cells (CLS Cell Lines Service) were used as an ex vivo model for the assessment of anti-tumor activity of specific compounds. Unless otherwise indicated A549 cells were cultured in DMEM: Ham's F12 medium supplemented with 2 mM L-glutamine and 10% fetal bovine serum. A549 cells resistant to doxorubicin (A549-DR) were obtained treating cells with 1 μM for 4 weeks. A549 cells were transfected with a plasmid that expresses GPBP-1 and further selected with G418 (Invitrogen) to obtain a cell line (A549-GPBP) that constitutively expresses GPBP-1.
Cytotoxicity assays were performed with alamarBlue® reagent (Invitrogen) according to manufacturer's instructions. A549 cells were seeded on 96-well culture plates (7,500 cells/well) and allowed to settle during 4 h. Then, cells were cultured with individual peptidomimetics at concentrations ranging from 0 to 50 μM, in presence of doxorubicin at concentrations ranging from 0 to 10 μM for 36 h. JLSM cells were harvested by treatment with 0.25% trypsin (Lonza) and plated on collagen I coated 96-well black culture plate (Perkin Elmer) at a density of 10.000 cells per cm^2. After 4 h settling, cells were treated with different peptidomimetics (with or without doxorubicin) for 36 h. Subsequently alamarBlue® reagent was added and incubation maintained for 3 h. Fluorescence was measured using 560EX nm/590EM nm filter settings with a SpectraMax GeminiXPS (Molecular Devices). Blank wells containing media were used to determine background fluorescence.
The activity shown for each compound in Table 1 is the factor by which doxorubicin LC50 is reduced by the compound at a 50-μM concentration in A549 cell cultures. […] The symbols −, −/+, +, ++, +++, ++++ in the third column are used to show relative activities of compounds in a simplified way.

The target of data set [2] is T1, human recombinant GPBP-1 (Homo sapiens, UniProt Q9Y5P4).
T1 construct: made in house; host or cells: Pichia pastoris
T1 sequence (Q9Y5P4 1-624): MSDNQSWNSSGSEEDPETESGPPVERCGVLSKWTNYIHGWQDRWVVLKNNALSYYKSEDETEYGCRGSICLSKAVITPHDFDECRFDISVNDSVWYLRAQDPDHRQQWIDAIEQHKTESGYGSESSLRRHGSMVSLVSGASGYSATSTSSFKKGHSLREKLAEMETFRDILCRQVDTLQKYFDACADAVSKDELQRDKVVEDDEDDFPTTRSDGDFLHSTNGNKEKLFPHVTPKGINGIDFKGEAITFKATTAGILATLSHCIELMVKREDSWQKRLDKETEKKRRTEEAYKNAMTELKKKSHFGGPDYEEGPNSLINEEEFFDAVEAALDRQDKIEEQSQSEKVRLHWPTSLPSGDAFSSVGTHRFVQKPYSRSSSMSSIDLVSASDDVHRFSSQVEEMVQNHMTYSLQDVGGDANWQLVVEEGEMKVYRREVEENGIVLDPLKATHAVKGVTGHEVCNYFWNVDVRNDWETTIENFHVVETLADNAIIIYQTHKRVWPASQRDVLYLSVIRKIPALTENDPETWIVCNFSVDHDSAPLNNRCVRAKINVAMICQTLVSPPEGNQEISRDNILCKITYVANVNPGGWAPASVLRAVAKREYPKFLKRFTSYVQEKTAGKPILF
To be noted: Saus et al. 2008, 2010; cited from earlier work.

Data set [3] concerns CSC derived from a uterine cancer. Briefly: Sensitivity of CSC derived from a uterine cancer. To be noted: data not shown. It is filed as cell-based.

Like-named read-outs stand apart in the source and are kept apart here.

Consider `CCOC(=O)CCc1cc(O)ccc1-c1ccc(-c2cccnc2)c(CO)c1` [13c], for which, in data set [1], the “toxicity of the compound by itself in A549 cultures” value (“toxicity of the compound by itself” for short) is listed as “significantly toxic”. The “Activity as enhancer of doxorubicin-induced cell death, relative activity symbol” value (“Activity as enhancer … relative activity symbol” for short) in data set [1] (compound at 10 μM) is recorded as “+”.

Turning to `Cc1cc(-c2ccc(O)cc2CCC(=O)O)ccc1-c1cccc(C(F)(F)F)c1`, the “Activity as enhancer … relative activity symbol” value in data set [1] (compound at 50 μM) is “+”.

As to `O=C(O)CCc1cc(O)ccc1-c1ccc(-c2cccc(C(F)(F)F)c2)c(CO)c1`, the “Activity as enhancer … relative activity symbol” value in data set [1] (compound at 50 μM) is “−”.

Regarding `Cc1cccc(-c2ccc(-c3ccc(O)cc3C(C)C)cc2CCC(=O)O)c1`, in data set [1] (compound at 50 μM), the “Activity as enhancer … relative activity symbol” value is given as “+”.

As to `O=C(O)CCc1cc(O)ccc1-c1ccc(-c2cccnc2)c(CF)c1`, the “Activity as enhancer … relative activity symbol” value in data set [1] (compound at 50 μM) is reported as “+”.

For the molecule `COc1ccc(-c2ccc(-c3cccnc3)c(CO)c2)c(CCC(=O)O)c1`, the “Activity as enhancer … relative activity symbol” value in data set [1] (compound at 50 μM) was “−”.

`CCCCCCCCCCCCCCCC(=O)Oc1ccc(-c2ccc(-c3cccc(C)c3)c(C)c2)c(CCC(=O)O)c1`: the “Activity as enhancer … relative activity symbol” value in data set [1] (compound at 50 μM) is listed as “−”.

Regarding `COc1ccc(-c2ccc(-c3cccc(C(F)(F)F)c3)c(C)c2)c(CCC(=O)O)c1`, in data set [1] (compound at 50 μM), the “Activity as enhancer … relative activity symbol” value is “+++”.

As to `COc1ccc(-c2ccc(-c3cccc(C(F)(F)F)c3)c(CO)c2)c(CCC(=O)O)c1`, the “Activity as enhancer … relative activity symbol” value in data set [1] (compound at 50 μM) is reported as “+”.

`Cc1cccc(-c2ccc(-c3ccc(O)cc3CCC(=O)O)cc2C(F)F)c1`: in data set [1] (compound at 50 μM), the “Activity as enhancer … relative activity symbol” value was “++”.

Take `CCCOc1ccc(-c2ccc(-c3cccc(C(F)(F)F)c3)c(C)c2)c(CCC(=O)O)c1` [24c]: the “toxicity of the compound by itself” value in data set [1] is on record as “significantly toxic”. Besides, the “Activity as enhancer … relative activity symbol” value in data set [1] (compound at 10 μM) is “++”.

Turning to `O=C(O)CCc1cc(O)ccc1-c1ccc(-c2cccnc2)c(CO)c1`, in data set [1] (compound at 50 μM), the “Activity as enhancer … relative activity symbol” value is “+”.

As to `Cc1cccc(-c2ccc(-c3ccc(O)cc3CCC(=O)O)cc2C)c1`, in data set [1] (compound at 50 μM), the “Activity as enhancer … relative activity symbol” value is “++”.

As for `O=C(O)CCc1cc(O)ccc1-c1ccc(-c2cccnc2)c(C(F)F)c1`, the “Activity as enhancer … relative activity symbol” value in data set [1] (compound at 50 μM) is listed as “+”.

In the case of “LATLSHCIELMVKR (SEQ ID NO: 8) [Q2, isolated peptide representing 260SHCIE264 and flanking regions of GPBP-1]”, the “inhibition of GPBP-1 kinase activity” value in data set [2] is given as “efficiently inhibits”.

On to `COc1ccc(-c2ccc(-c3ccc(OC)c(C)c3)c(C)c2)c(CCC(=O)O)c1`, for which the “Activity as enhancer … relative activity symbol” value in data set [1] (compound at 50 μM) was “++++”.

For the molecule `CCCOc1ccc(-c2ccc(-c3cccc(C)c3)c(C)c2)c(CCC(=O)O)c1` [24a], the “toxicity of the compound by itself” value in data set [1] was “significantly toxic”. In addition, the “Activity as enhancer … relative activity symbol” value in data set [1] (compound at 25 μM) was “++”.

Regarding `COc1ccc(-c2ccc(-c3cccnc3)c(C)c2)c(CCC(=O)O)c1`, the “Activity as enhancer … relative activity symbol” value in data set [1] (compound at 50 μM) is reported as “++++”.

For the molecule `Cc1cccc(-c2ccc(-c3ccc(O)cc3CCC(=O)O)cc2CF)c1`, the “Activity as enhancer … relative activity symbol” value in data set [1] (compound at 50 μM) was “++”.

Turning to `Cc1cccc(-c2ccc(-c3ccc(O)cc3CCC(=O)O)cc2CO)c1`, the “Activity as enhancer … relative activity symbol” value in data set [1] (compound at 50 μM) is on record as “−/+”.

Regarding `O=C(O)CCc1cc(O)ccc1-c1ccc(-c2cccc(C(F)(F)F)c2)c(C(F)F)c1`, in data set [1] (compound at 50 μM), the “Activity as enhancer … relative activity symbol” value was “++”.

`COc1ccc(-c2ccc(-c3cccnc3)c(CF)c2)c(CCC(=O)O)c1`: the “Activity as enhancer … relative activity symbol” value in data set [1] (compound at 50 μM) is reported as “+++”.

Turning to `O=C(O)c1ccc(C=C2SC(=S)N(c3cccc(C(F)(F)F)c3)C2=O)cc1` [CFTR/ABCC7 inhibitor 172, 3-[(3-Trifluoromethyl)phenyl]-5-[(4-carboxyphenyl)methylene]-2-thioxo-4-thiazolidinone, reference compound], the “cell viability in cultures treated with T12 with or without doxorubicin” value in data set [1] (CFTR-inhibitor-172 25 μM, T12 50 μM, 36 h) is “significantly reduced cell viability”.

For the molecule `CCOC(=O)CCc1cc(O)ccc1-c1ccc(-c2cccc(C(F)(F)F)c2)c(C)c1`, the “Activity as enhancer … relative activity symbol” value in data set [1] (compound at 50 μM) was “−?”.

`O=C(O)CCc1cc(O)ccc1-c1ccc(-c2cccc(C(F)(F)F)c2)c(CF)c1`: the “Activity as enhancer … relative activity symbol” value in data set [1] (compound at 50 μM) is listed as “++++”.

As to `COc1ccc(-c2ccc(-c3ccc(OC)c(Cl)c3)c(C)c2)c(CCC(=O)O)c1` [T55], the “sensitivity of uterine cancer CSC to the compound” value in data set [3] is listed as “highly sensitive”. The “Activity as enhancer … relative activity symbol” value in data set [1] (compound at 25 μM) is on record as “++++”.

In the case of `C[n+]1cccc(-c2ccc(-c3ccc(O)cc3CCC(=O)[O-])cc2CO)c1`, the “Activity as enhancer … relative activity symbol” value in data set [1] (compound at 50 μM) was “−”.

For the molecule `Cc1cccc(-c2ccc(-c3ccc(OCC(=O)O)cc3CCC(=O)O)cc2C)c1`, in data set [1] (compound at 50 μM), the “Activity as enhancer … relative activity symbol” value is given as “−”.

With `COc1ccc(-c2ccc(-c3cccc(C)c3)c(CO)c2)c(CCC(=O)O)c1`, the “Activity as enhancer … relative activity symbol” value in data set [1] (compound at 50 μM) is reported as “−/+”.

As to `Cc1cccc(-c2ccc(-c3ccc(O)cc3CCO)cc2CCC(=O)O)c1`, the “Activity as enhancer … relative activity symbol” value in data set [1] (compound at 50 μM) was “+”.

Source of the values: patent publication US9066938B2, “GPBP-1 inhibition and its therapeutic use” (Fibrostatin S.L., priority 2012, dated 2015).
